# Measured values taken from PubChem BioAssay (NCI).
#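 Growth conditions: 96-well plates. Treatment: test compound, 48 hours, 5 concentrations. Analysis: linear interpolation between bracketing concentrations; unreached endpoints set to highest concentration. TGI denotes the concentration required for complete inhibition of growth.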
# Legend:
# Test in all cases: NCI tumour cell line growth inhibition, 48 h
# A498 renal = system: A498 renal
# A549 NSCLC = system: A549 NSCLC
# CAKI-1 renal = system: CAKI-1 renal
# CCRF-CEM leukemia = system: CCRF-CEM leukemia
# COLO 205 colon = system: COLO 205 colon
# DLD-1 colon = system: DLD-1 colon
# DMS 114 small cell lung = system: DMS 114 small cell lung
# DMS 273 small cell lung = system: DMS 273 small cell lung
# EKVX NSCLC = system: EKVX NSCLC
# HCC-2998 colon = system: HCC-2998 colon
# HCT-116 colon = system: HCT-116 colon
# HCT-15 colon = system: HCT-15 colon
# HL-60(TB) leukemia = system: HL-60(TB) leukemia
# HOP-18 NSCLC = system: HOP-18 NSCLC
# HOP-62 NSCLC = system: HOP-62 NSCLC
# HOP-92 NSCLC = system: HOP-92 NSCLC
# HT29 colon = system: HT29 colon
# IGROV1 ovarian = system: IGROV1 ovarian
# K-562 leukemia = system: K-562 leukemia
# KM12 colon = system: KM12 colon
# KM20L2 colon = system: KM20L2 colon
# LOX IMVI melanoma = system: LOX IMVI melanoma
# M19-MEL melanoma = system: M19-MEL melanoma
# MALME-3M melanoma = system: MALME-3M melanoma
# MCF7 breast = system: MCF7 breast
# MOLT-4 leukemia = system: MOLT-4 leukemia
# NCI-H226 lung = system: NCI-H226 lung
# NCI-H23 lung = system: NCI-H23 lung
# NCI-H460 lung = system: NCI-H460 lung
# NCI-H522 lung = system: NCI-H522 lung
# NCI/ADR-RES ovarian = system: NCI/ADR-RES ovarian
# OVCAR-3 ovarian = system: OVCAR-3 ovarian
# OVCAR-4 ovarian = system: OVCAR-4 ovarian
# OVCAR-5 ovarian = system: OVCAR-5 ovarian
# OVCAR-8 ovarian = system: OVCAR-8 ovarian
# P388 leukemia = system: P388 leukemia
# P388/ADR leukemia = system: P388/ADR leukemia
# RPMI-8226 leukemia = system: RPMI-8226 leukemia
# RXF 393 renal = system: RXF 393 renal
# SF-268 CNS = system: SF-268 CNS
# SF-295 CNS = system: SF-295 CNS
# SF-539 CNS = system: SF-539 CNS
# SK-MEL-2 melanoma = system: SK-MEL-2 melanoma
# SK-MEL-28 melanoma = system: SK-MEL-28 melanoma
# SK-MEL-5 melanoma = system: SK-MEL-5 melanoma
# SK-OV-3 ovarian = system: SK-OV-3 ovarian
# SN12C renal = system: SN12C renal
# SN12K1 renal = system: SN12K1 renal
# SNB-19 CNS = system: SNB-19 CNS
# SNB-75 CNS = system: SNB-75 CNS
# SNB-78 CNS = system: SNB-78 CNS
# SW-620 colon = system: SW-620 colon
# U251 CNS = system: U251 CNS
# UACC-257 melanoma = system: UACC-257 melanoma
# UACC-62 melanoma = system: UACC-62 melanoma
# UO-31 renal = system: UO-31 renal
# XF 498 CNS = system: XF 498 CNS
structure (smiles),measurement,setting,value
Nc1nc2[nH]c(=O)cnc2c(=O)[nH]1,TGI,A498 renal,> 125 µM
same,TGI,A549 NSCLC,> 125 µM
same,TGI,CAKI-1 renal,> 125 µM
same,TGI,CCRF-CEM leukemia,> 125 µM
same,TGI,COLO 205 colon,> 125 µM
same,TGI,DLD-1 colon,> 125 µM
same,TGI,DMS 114 small cell lung,> 125 µM
same,TGI,DMS 273 small cell lung,> 125 µM
same,TGI,EKVX NSCLC,> 125 µM
same,TGI,HCC-2998 colon,> 125 µM
same,TGI,HCT-116 colon,> 125 µM
same,TGI,HCT-15 colon,> 78.9 µM
same,TGI,HL-60(TB) leukemia,> 125 µM
same,TGI,HOP-18 NSCLC,> 5.8 µM
same,TGI,HOP-62 NSCLC,> 125 µM
same,TGI,HOP-92 NSCLC,> 125 µM
same,TGI,HT29 colon,> 125 µM
same,TGI,IGROV1 ovarian,> 125 µM
same,TGI,K-562 leukemia,> 125 µM
same,TGI,KM12 colon,> 125 µM
same,TGI,KM20L2 colon,> 91.4 µM
same,TGI,LOX IMVI melanoma,> 125 µM
same,TGI,M19-MEL melanoma,> 85.2 µM
same,TGI,MALME-3M melanoma,> 125 µM
same,TGI,MCF7 breast,> 125 µM
same,TGI,MOLT-4 leukemia,> 125 µM
same,TGI,NCI-H226 lung,> 125 µM
same,TGI,NCI-H23 lung,> 125 µM
same,TGI,NCI-H460 lung,> 125 µM
same,TGI,NCI-H522 lung,> 19.8 µM
same,TGI,NCI/ADR-RES ovarian,> 125 µM
same,TGI,OVCAR-3 ovarian,> 125 µM
same,TGI,OVCAR-4 ovarian,> 125 µM
same,TGI,OVCAR-5 ovarian,> 107 µM
same,TGI,OVCAR-8 ovarian,> 125 µM
same,TGI,P388 leukemia,> 125 µM
same,TGI,P388/ADR leukemia,> 125 µM
same,TGI,RPMI-8226 leukemia,> 125 µM
same,TGI,RXF 393 renal,> 125 µM
same,TGI,SF-268 CNS,> 125 µM
same,TGI,SF-295 CNS,> 125 µM
same,TGI,SF-539 CNS,> 125 µM
same,TGI,SK-MEL-2 melanoma,> 125 µM
same,TGI,SK-MEL-28 melanoma,> 125 µM
same,TGI,SK-MEL-5 melanoma,> 125 µM
same,TGI,SK-OV-3 ovarian,> 125 µM
same,TGI,SN12C renal,> 125 µM
same,TGI,SN12K1 renal,> 125 µM
same,TGI,SNB-19 CNS,> 125 µM
same,TGI,SNB-75 CNS,> 125 µM
same,TGI,SNB-78 CNS,> 125 µM
same,TGI,SW-620 colon,> 125 µM
same,TGI,U251 CNS,> 125 µM
same,TGI,UACC-257 melanoma,> 125 µM
same,TGI,UACC-62 melanoma,> 125 µM
same,TGI,UO-31 renal,> 125 µM
same,TGI,XF 498 CNS,> 125 µM
CN(C)CCN=C1c2ccccc2-c2c(=O)n(CCN(C)C)c(O)c3cccc1c23,TGI,A498 renal,2.19 µM
same,TGI,A549 NSCLC,0.461 µM
same,TGI,CAKI-1 renal,2.7 µM
same,TGI,CCRF-CEM leukemia,10.5 µM
same,TGI,COLO 205 colon,0.27 µM
same,TGI,DLD-1 colon,0.217 µM
same,TGI,DMS 114 small cell lung,0.499 µM
same,TGI,DMS 273 small cell lung,0.508 µM
same,TGI,EKVX NSCLC,0.987 µM
same,TGI,HCC-2998 colon,0.494 µM
same,TGI,HCT-116 colon,0.432 µM
same,TGI,HCT-15 colon,0.245 µM
same,TGI,HL-60(TB) leukemia,0.592 µM
same,TGI,HOP-18 NSCLC,0.603 µM
same,TGI,HOP-62 NSCLC,4.04 µM
same,TGI,HOP-92 NSCLC,0.563 µM
same,TGI,HT29 colon,0.257 µM
same,TGI,IGROV1 ovarian,0.616 µM
same,TGI,KM12 colon,1.25 µM
same,TGI,KM20L2 colon,0.783 µM
same,TGI,LOX IMVI melanoma,0.185 µM
same,TGI,MALME-3M melanoma,1.6 µM
same,TGI,MCF7 breast,0.944 µM
same,TGI,MOLT-4 leukemia,28 µM
same,TGI,NCI-H226 lung,3.35 µM
same,TGI,NCI-H23 lung,0.258 µM
same,TGI,NCI-H460 lung,0.339 µM
same,TGI,NCI-H522 lung,0.315 µM
same,TGI,NCI/ADR-RES ovarian,0.289 µM
same,TGI,OVCAR-3 ovarian,0.689 µM
same,TGI,OVCAR-4 ovarian,0.154 µM
same,TGI,OVCAR-5 ovarian,0.794 µM
same,TGI,OVCAR-8 ovarian,0.433 µM
same,TGI,RPMI-8226 leukemia,12.9 µM
same,TGI,RXF 393 renal,0.085 µM
same,TGI,SF-268 CNS,0.578 µM
same,TGI,SF-295 CNS,0.605 µM
same,TGI,SF-539 CNS,1.82 µM
same,TGI,SK-MEL-2 melanoma,0.857 µM
same,TGI,SK-MEL-28 melanoma,0.862 µM
same,TGI,SK-MEL-5 melanoma,1.95 µM
same,TGI,SK-OV-3 ovarian,1.4 µM
same,TGI,SN12C renal,0.674 µM
same,TGI,SN12K1 renal,0.851 µM
same,TGI,SNB-19 CNS,1.73 µM
same,TGI,SNB-75 CNS,0.487 µM
same,TGI,SNB-78 CNS,1.73 µM
same,TGI,SW-620 colon,0.493 µM
same,TGI,U251 CNS,0.752 µM
same,TGI,UACC-257 melanoma,1.25 µM
same,TGI,UACC-62 melanoma,0.734 µM
same,TGI,UO-31 renal,3.97 µM
same,TGI,XF 498 CNS,0.922 µM
